{
  "source": "ChEMBL document CHEMBL3992504",
  "about": "(Eur J Med Chem, 2017)",
  "key": {"[1]": {"biological_target": "ALK tyrosine kinase receptor (Homo sapiens) (UniProt Q9UM73)", "sequence (Q9UM73 19-1620 limits assumed)": "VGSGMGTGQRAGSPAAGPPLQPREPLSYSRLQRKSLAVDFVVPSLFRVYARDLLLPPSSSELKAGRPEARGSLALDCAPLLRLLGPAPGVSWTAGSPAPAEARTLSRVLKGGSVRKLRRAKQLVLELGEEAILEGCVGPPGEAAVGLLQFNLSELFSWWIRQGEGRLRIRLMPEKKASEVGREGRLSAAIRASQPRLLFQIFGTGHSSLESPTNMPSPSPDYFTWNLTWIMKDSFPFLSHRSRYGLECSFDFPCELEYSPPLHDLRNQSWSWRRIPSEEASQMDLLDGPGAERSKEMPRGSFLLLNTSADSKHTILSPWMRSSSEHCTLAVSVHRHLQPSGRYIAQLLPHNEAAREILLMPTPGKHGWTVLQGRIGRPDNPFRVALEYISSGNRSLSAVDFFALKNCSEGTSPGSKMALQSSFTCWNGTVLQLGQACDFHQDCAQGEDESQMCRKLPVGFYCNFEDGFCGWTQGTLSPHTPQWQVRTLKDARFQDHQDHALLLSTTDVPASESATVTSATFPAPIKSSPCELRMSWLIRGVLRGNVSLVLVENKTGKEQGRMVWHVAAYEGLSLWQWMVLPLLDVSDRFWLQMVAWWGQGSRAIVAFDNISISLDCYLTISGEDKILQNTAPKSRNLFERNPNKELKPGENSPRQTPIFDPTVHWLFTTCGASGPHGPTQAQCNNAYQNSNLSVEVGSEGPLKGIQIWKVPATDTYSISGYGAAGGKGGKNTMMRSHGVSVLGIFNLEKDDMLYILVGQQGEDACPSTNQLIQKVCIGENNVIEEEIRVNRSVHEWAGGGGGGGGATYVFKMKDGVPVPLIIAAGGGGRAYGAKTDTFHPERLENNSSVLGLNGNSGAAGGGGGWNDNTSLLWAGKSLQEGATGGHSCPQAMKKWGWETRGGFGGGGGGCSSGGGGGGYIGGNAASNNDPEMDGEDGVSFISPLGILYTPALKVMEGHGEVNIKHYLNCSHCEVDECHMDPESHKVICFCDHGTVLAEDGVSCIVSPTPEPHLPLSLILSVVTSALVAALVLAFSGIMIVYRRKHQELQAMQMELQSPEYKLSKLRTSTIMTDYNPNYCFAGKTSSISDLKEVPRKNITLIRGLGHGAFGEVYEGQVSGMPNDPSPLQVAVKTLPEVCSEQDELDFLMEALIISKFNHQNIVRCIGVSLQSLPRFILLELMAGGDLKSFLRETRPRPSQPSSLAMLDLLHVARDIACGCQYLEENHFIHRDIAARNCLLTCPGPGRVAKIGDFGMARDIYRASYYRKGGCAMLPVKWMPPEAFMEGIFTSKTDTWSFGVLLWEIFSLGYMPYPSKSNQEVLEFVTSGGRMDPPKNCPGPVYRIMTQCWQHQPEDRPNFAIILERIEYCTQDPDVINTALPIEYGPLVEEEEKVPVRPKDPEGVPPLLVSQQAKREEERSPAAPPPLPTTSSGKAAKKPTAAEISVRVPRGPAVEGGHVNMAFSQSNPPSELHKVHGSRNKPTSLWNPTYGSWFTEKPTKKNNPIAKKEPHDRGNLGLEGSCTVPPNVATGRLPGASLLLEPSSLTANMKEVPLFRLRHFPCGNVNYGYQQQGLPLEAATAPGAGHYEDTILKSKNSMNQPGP", "description": "Inhibition of EML4 fused ALK in human NCI-H3122 cells assessed as cell growth inhibition measured after 72 hrs by SRB assay"}, "[2]": {"biological_target": "ALK tyrosine kinase receptor (Homo sapiens) (UniProt Q9UM73)", "remark": "listed apart in the source", "description": "Inhibition of EML4 fused ALK (unknown origin) expressed in mouse BA/F3 cells assessed as cell growth inhibition measured after 72 hrs by SRB assay"}, "[3]": {"system": "Mus musculus", "test": "Toxicity in BALB/c nu/nu mouse xenografted with human NCI-H3122 cells assessed as change in body weight at 50 mg/kg administered via oral gavage for 14 days", "type": "organism-based", "conditions": "in vivo, 336 h"}, "[4]": {"test": "AUC (infinity) in rat at 10 mg/kg administered via oral gavage by LC/MS/MS analysis", "type": "ADME, organism-based", "design": "dose 10 mg/kg, time infinity, route oral", "conditions": "in vivo"}, "[5]": {"test": "Inhibition of ALK T1151-L1152 insT mutant (unknown origin) using peptide as substrate measured after 30 mins by fluorescence assay", "design": "species or system Homo sapiens"}, "[6]": {"test": "Half life in rat at 10 mg/kg administered via oral gavage by LC/MS/MS analysis", "type": "ADME, organism-based", "conditions": "in vivo"}, "[7]": {"test": "AUCt in rat at 10 mg/kg administered via oral gavage by LC/MS/MS analysis", "type": "ADME, organism-based", "conditions": "in vivo"}, "[8]": {"test": "Tmax in rat at 10 mg/kg administered via oral gavage by LC/MS/MS analysis", "type": "ADME, organism-based", "conditions": "in vivo"}, "[9]": {"test": "Cmax in rat at 10 mg/kg administered via oral gavage by LC/MS/MS analysis", "type": "ADME, organism-based", "design": "dose 10 mg/kg, route oral", "conditions": "in vivo"}, "[10]": {"biological_target": "ALK tyrosine kinase receptor (Homo sapiens, UniProt Q9UM73, G1202R)", "sequence (Q9UM73 19-1620 G1202R limits assumed)": "as the sequence (Q9UM73 19-1620 limits assumed) above, with G1184R counted along it", "test": "Inhibition of ALK G1202R mutant (unknown origin) using peptide as substrate measured after 30 mins by fluorescence assay"}, "[11]": {"biological_target": "ALK tyrosine kinase receptor (Homo sapiens, UniProt Q9UM73, C1156Y)", "sequence (Q9UM73 19-1620 C1156Y limits assumed)": "as the sequence (Q9UM73 19-1620 limits assumed) above, with C1138Y counted along it", "test": "Inhibition of ALK C1156Y mutant (unknown origin) using peptide as substrate measured after 30 mins by fluorescence assay"}, "[12]": {"biological_target": "ALK tyrosine kinase receptor (Homo sapiens, UniProt Q9UM73, G1269A)", "sequence (Q9UM73 19-1620 G1269A limits assumed)": "as the sequence (Q9UM73 19-1620 limits assumed) above, with G1251A counted along it", "test": "Inhibition of ALK G1269A mutant (unknown origin) using peptide as substrate measured after 30 mins by fluorescence assay"}, "[13]": {"biological_target": "ALK tyrosine kinase receptor (Homo sapiens, UniProt Q9UM73, F1174L)", "sequence (Q9UM73 19-1620 F1174L limits assumed)": "as the sequence (Q9UM73 19-1620 limits assumed) above, with F1156L counted along it", "test": "Inhibition of ALK F1174L mutant (unknown origin) using peptide as substrate measured after 30 mins by fluorescence assay"}},
  "data": [
    {"smiles": "CNCCc1cc(OC)c(Nc2ncc(Cl)c(Nc3ccccc3S(=O)(=O)C(C)C)n2)cc1C", "values": [
      {"measurement": "CC50", "setting": "[1]", "value": 20, "unit": "nM"},
      {"measurement": "CC50", "setting": "[2]", "value": 13, "unit": "nM"}
    ]},
    {"smiles": "COc1cc(C(C)(C)CN)c(C)cc1Nc1ncc(Cl)c(Nc2ccccc2S(=O)(=O)C(C)C)n1", "values": [
      {"measurement": "CC50", "setting": "[1]", "value": 53, "unit": "nM"},
      {"measurement": "CC50", "setting": "[2]", "value": 36, "unit": "nM"}
    ]},
    {"smiles": "COc1cc(C(C)(C)CNC=O)c(C)cc1Nc1ncc(Cl)c(Nc2ccccc2S(=O)(=O)C(C)C)n1", "values": [
      {"measurement": "CC50", "setting": "[1]", "value": 63, "unit": "nM"},
      {"measurement": "CC50", "setting": "[2]", "value": 38, "unit": "nM"}
    ]},
    {"smiles": "COc1cc(C(C)(C)C#N)c(C)cc1Nc1ncc(Cl)c(Nc2ccccc2S(=O)(=O)C(C)C)n1", "values": [
      {"measurement": "CC50", "setting": "[1]", "value": 250, "unit": "nM"},
      {"measurement": "CC50", "setting": "[2]", "value": 250, "unit": "nM"}
    ]},
    {"smiles": "COc1cc(CN(C)C)c(C)cc1Nc1ncc(Cl)c(Nc2ccccc2S(=O)(=O)C(C)C)n1", "values": [
      {"measurement": "CC50", "setting": "[1]", "value": 37, "unit": "nM"},
      {"measurement": "CC50", "setting": "[2]", "value": 21, "unit": "nM"}
    ]},
    {"smiles": "CNCc1cc(OC)c(Nc2ncc(Cl)c(Nc3ccccc3S(=O)(=O)C(C)C)n2)cc1C", "values": [
      {"measurement": "CC50", "setting": "[1]", "value": 25, "unit": "nM"},
      {"measurement": "CC50", "setting": "[2]", "value": 15, "unit": "nM"}
    ]},
    {"smiles": "COc1cc(C(C)(C)CN(C)C)c(C)cc1Nc1ncc(Cl)c(Nc2ccccc2S(=O)(=O)C(C)C)n1", "values": [
      {"measurement": "CC50", "setting": "[1]", "value": 26, "unit": "nM"},
      {"measurement": "CC50", "setting": "[2]", "value": 14, "unit": "nM"}
    ]},
    {"smiles": "CNC(C)(C)c1cc(OC)c(Nc2ncc(Cl)c(Nc3ccccc3S(=O)(=O)C(C)C)n2)cc1C", "values": [
      {"measurement": "CC50", "setting": "[1]", "value": 29, "unit": "nM"},
      {"measurement": "CC50", "setting": "[2]", "value": 15, "unit": "nM"}
    ]},
    {"smiles": "COc1cc(CNC=O)c(C)cc1Nc1ncc(Cl)c(Nc2ccccc2S(=O)(=O)C(C)C)n1", "values": [
      {"measurement": "CC50", "setting": "[2]", "value": 15, "unit": "nM"}
    ]},
    {"smiles": "COc1cc(C(C)(C)NC=O)c(C)cc1Nc1ncc(Cl)c(Nc2ccccc2S(=O)(=O)C(C)C)n1", "values": [
      {"measurement": "CC50", "setting": "[1]", "value": 52, "unit": "nM"},
      {"measurement": "CC50", "setting": "[2]", "value": 24, "unit": "nM"}
    ]},
    {"smiles": "CNCC(C)(C)c1cc(OC)c(Nc2ncc(Cl)c(Nc3ccccc3S(=O)(=O)C(C)C)n2)cc1C", "values": [
      {"measurement": "CC50", "setting": "[1]", "value": 41, "unit": "nM"},
      {"measurement": "CC50", "setting": "[2]", "value": 19, "unit": "nM"}
    ]},
    {"smiles": "COc1cc(C(C)(C)N)c(C)cc1Nc1ncc(Cl)c(Nc2ccccc2S(=O)(=O)C(C)C)n1", "values": [
      {"measurement": "CC50", "setting": "[1]", "value": 12, "unit": "nM"},
      {"measurement": "CC50", "setting": "[2]", "value": 12, "unit": "nM"}
    ]},
    {"smiles": "COc1cc(C(C)(C)N(C)C)c(C)cc1Nc1ncc(Cl)c(Nc2ccccc2S(=O)(=O)C(C)C)n1", "values": [
      {"measurement": "CC50", "setting": "[1]", "value": 35, "unit": "nM"},
      {"measurement": "CC50", "setting": "[2]", "value": 20, "unit": "nM"}
    ]},
    {"smiles": "COc1cc(CC#N)c(C)cc1Nc1ncc(Cl)c(Nc2ccccc2S(=O)(=O)C(C)C)n1", "values": [
      {"measurement": "CC50", "setting": "[1]", "value": 74, "unit": "nM"},
      {"measurement": "CC50", "setting": "[2]", "value": 61, "unit": "nM"}
    ]},
    {"smiles": "Cc1cc(Nc2ncc(Cl)c(Nc3ccccc3S(=O)(=O)C(C)C)n2)c(OC(C)C)cc1C1CCNCC1", "note": "[CERITINIB]", "values": [
      {"measurement": "Activity", "setting": "[3]", "value": "Non-Toxic"},
      {"measurement": "AUC(0-inf)", "setting": "[4]", "value": 2650, "unit": "ng·h/mL"},
      {"measurement": "IC50", "setting": "[5]", "value": 0.63, "unit": "nM"},
      {"measurement": "half-life", "setting": "[6]", "value": 10.3, "unit": "h"},
      {"measurement": "AUC(0-t)", "setting": "[7]", "value": 1380, "unit": "ng·h/mL"},
      {"measurement": "Tmax", "setting": "[8]", "value": 7.33, "unit": "h"}
    ]},
    {"smiles": "COc1cc(CCN)c(C)cc1Nc1ncc(Cl)c(Nc2ccccc2S(=O)(=O)C(C)C)n1", "values": [
      {"measurement": "CC50", "setting": "[1]", "value": 60, "unit": "nM"},
      {"measurement": "CC50", "setting": "[2]", "value": 68, "unit": "nM"}
    ]},
    {"smiles": "COc1cc(CCNC=O)c(C)cc1Nc1ncc(Cl)c(Nc2ccccc2S(=O)(=O)C(C)C)n1", "values": [
      {"measurement": "CC50", "setting": "[1]", "value": 68, "unit": "nM"},
      {"measurement": "CC50", "setting": "[2]", "value": 60, "unit": "nM"}
    ]},
    {"smiles": "COc1cc(CCN(C)C)c(C)cc1Nc1ncc(Cl)c(Nc2ccccc2S(=O)(=O)C(C)C)n1", "values": [
      {"measurement": "Activity", "setting": "[3]", "value": "Non-Toxic"},
      {"measurement": "Cmax", "setting": "[9]", "value": 263, "unit": "ng/mL"},
      {"measurement": "IC50", "setting": "[10]", "value": 1.8, "unit": "nM"},
      {"measurement": "CC50", "setting": "[1]", "value": 13, "unit": "nM"},
      {"measurement": "AUC(0-inf)", "setting": "[4]", "value": 4250, "unit": "ng·h/mL"},
      {"measurement": "IC50", "setting": "[11]", "value": 1.1, "unit": "nM"},
      {"measurement": "IC50", "setting": "[5]", "value": 0.63, "unit": "nM"},
      {"measurement": "IC50", "setting": "[12]", "value": 0.4, "unit": "nM"},
      {"measurement": "IC50", "setting": "[13]", "value": 0.56, "unit": "nM"},
      {"measurement": "half-life", "setting": "[6]", "value": 7.48, "unit": "h"},
      {"measurement": "AUC(0-t)", "setting": "[7]", "value": 3750, "unit": "ng·h/mL"},
      {"measurement": "Tmax", "setting": "[8]", "value": 4, "unit": "h"},
      {"measurement": "CC50", "setting": "[2]", "value": 10, "unit": "nM"}
    ]}
  ]
}
